Results reported in patent publication US20250049801A1, “PHARMACEUTICAL COMBINATIONS FOR USE IN THE TREATMENT OF NEOPLASTIC DISEASES” (priority 2021, published 2025).
Marks after values point to notes of the source that are not given here.

Columns and labels:
[1] = tested on: patient-derived xenograft (PDX) triple negative breast cancer (TNBC) tumor, BR1282; assay: First PDX study, efficacy; type: in vivo, BALB/c nude mice; details: for Efficacy: ΔT/C Day 16: mean change in tumor volume on day 16; for Efficacy: ΔT/C Day −0 up to Day 42: mean rate of growth (k), exponential curve fits, day 0 to culling day or day 42; for Cures Day 97: no tumors detectable by H&E staining of skin on day 97, N=8 mice/group
Procedure: (§1) The compound of formula (I) was supplied as a powder by Basilea Pharmaceutica International Ltd. and was prepared freshly as a solution in Ethanol: PEG400:Citric acid 20 mM, at a ratio of 1:1:8, for immediate administration.
(§2) The statistical significance of efficacy were determined in two different ways using a) the endpoint on day 16 or day 13 depending on the study when it was necessary to cull the vehicle group because of tumor volume exceeding 1500 mm3, and b) at the endpoint of day 42 or day 51 depending on the study (one week after the final treatment) when exponential curve fits were applied to estimate the rates of tumor growth in the different groups. Finally, the number of complete cures was compared across the groups following confirmation by histopathology within the first study. The degree of an effect was quantified by the delta (Δ) treated/control ratio (ΔT/C) and the statistical significance of the effect was determined by a one-way analysis of variance (1W-ANOVA) with Holms-Sidak applied post-hoc for multiple determinations, where a p-value of <0.05 was considered statistically significant. In addition, an assessment of synergy was made based upon the Clarkes Combination Index (CCI), where the CCI=ΔT/CAB−(ΔT/CA*ΔT/CB) in which A and B are two different compounds, where CCI<−0.1 indicates synergy (or a positive interaction), +0.1 (antagonism, or a negative interaction) and between −0.1 and +0.1 indicates additivity (no interaction); see O'Reilly et al. Anti Cancer Drugs 2011; 22:58-78.

[2] = mouse, in vivo
Procedure: Dosing was delayed by 1 day in any mice showing transient body weight loss of ≥ 10% at any time point.
(§3) Body weights and tumor volumes were determined at least twice per week, the latter by measuring two dimensions with calipers and applying the formula “V=(L×W2)/2”, where V is the tumor volume, and L and W are the tumor length and width respectively. […] Mice were also culled if the BWL was determined to be >15% for 3 consecutive days. Any mice with >10% BWL, automatically were dosed on one of the following days, as soon as the BWL returned to <10%. All animal protocols were reviewed and approved by the relevant local committees in China, where the studies were performed.

TNBC BR1282 PDX model = assay: Second PDX study, efficacy; type: in vivo, BALB/c nude mice; details: for Efficacy: ΔT/C Day 13: mean change in tumor volume on day 13; for Efficacy: ΔT/C Day 0 up to day 51: mean rate of growth (k), day 0 to culling day or day 51; for Cures By day 148: no tumors detectable by pathological confirmation at end of observation period, 8 mice per group
Procedure: as §1, §2

[3] = for Tolerability (Day 16) ΔBW (%) / Tolerability (Day 16) ΔT/C: mouse, in vivo
Procedure: In a first PDX study female BALB/c nude mice (CrownBio) of at least 20 g body weight were subcutaneously (s.c.) inoculated in the right flank with tumor fragments (3*3*3 mm) from stock mice bearing the patient-derived xenograft (PDX) triple negative breast cancer (TNBC) tumor, BR1282. Randomization into 5 different treatment groups (8 mice per group) was made when the mean tumor size was 150-200 mm3. […] The fifth group received both vehicles using the time interval of 4 h and all groups were dosed twice via the tail vein. Dosing was delayed by 1 day in any mice showing transient body weight loss of ≥ 10% at any time point.
as §3

other kinase = assay: Kinase specificity, other kinases versus TTK; type: biochemical
TTK [4] = target: T1, TTK (Homo sapiens, UniProt P33981); assay: TTK kinase assay as described in WO 2015/155042; type: biochemical; details: when measured as described in WO 2015/155042
T1 construct: TTK and PLK1 protein kinases were expressed as recombinant full-length GST-fusion proteins; GST
T1 sequence (P33981 1-857): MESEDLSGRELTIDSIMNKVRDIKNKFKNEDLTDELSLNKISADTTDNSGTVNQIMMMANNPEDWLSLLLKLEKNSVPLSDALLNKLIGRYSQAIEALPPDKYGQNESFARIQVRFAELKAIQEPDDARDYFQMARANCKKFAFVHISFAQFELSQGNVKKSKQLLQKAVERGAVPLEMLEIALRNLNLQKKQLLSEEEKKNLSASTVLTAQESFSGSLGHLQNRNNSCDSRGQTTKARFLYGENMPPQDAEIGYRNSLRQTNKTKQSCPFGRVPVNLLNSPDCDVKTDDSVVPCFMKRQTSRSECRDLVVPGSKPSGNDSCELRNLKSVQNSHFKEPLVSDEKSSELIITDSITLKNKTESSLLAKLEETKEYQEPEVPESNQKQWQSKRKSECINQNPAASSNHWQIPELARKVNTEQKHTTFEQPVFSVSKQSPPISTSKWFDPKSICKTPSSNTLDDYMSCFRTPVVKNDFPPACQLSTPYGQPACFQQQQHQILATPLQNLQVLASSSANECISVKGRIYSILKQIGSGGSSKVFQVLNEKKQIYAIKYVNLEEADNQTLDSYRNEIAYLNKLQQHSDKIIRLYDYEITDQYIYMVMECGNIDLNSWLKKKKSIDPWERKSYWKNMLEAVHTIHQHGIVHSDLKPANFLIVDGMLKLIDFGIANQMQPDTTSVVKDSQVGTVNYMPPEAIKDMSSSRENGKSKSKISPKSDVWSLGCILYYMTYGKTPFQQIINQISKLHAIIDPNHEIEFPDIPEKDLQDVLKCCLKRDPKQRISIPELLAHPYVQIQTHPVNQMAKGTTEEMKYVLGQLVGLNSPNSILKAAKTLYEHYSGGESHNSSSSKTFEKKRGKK

PLK1 [5] = target: T2, PLK1 (Homo sapiens, UniProt P53350); assay: Radiometric protein kinase assay (33PanQinase Activity Assay), PLK1; type: biochemical; details: radiometric 33PanQinase assay; ATP 1 mM
T2 sequence (P53350 whole entry, the tested form may be a part): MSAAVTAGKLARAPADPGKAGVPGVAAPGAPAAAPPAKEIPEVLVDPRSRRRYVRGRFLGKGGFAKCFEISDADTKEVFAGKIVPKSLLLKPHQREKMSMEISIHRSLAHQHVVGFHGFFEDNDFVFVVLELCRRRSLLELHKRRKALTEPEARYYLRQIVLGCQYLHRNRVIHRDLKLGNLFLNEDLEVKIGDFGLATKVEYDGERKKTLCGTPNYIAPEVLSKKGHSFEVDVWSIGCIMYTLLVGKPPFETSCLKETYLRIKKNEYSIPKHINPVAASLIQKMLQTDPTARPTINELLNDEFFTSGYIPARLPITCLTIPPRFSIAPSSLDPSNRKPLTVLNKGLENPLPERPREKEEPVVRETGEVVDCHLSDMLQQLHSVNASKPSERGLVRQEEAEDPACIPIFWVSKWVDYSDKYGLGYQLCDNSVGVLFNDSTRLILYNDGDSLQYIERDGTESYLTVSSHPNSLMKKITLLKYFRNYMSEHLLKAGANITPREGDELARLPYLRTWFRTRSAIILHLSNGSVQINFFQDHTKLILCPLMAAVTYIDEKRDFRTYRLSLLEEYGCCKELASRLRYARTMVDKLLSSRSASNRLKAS
Procedure: (§4) A radiometric protein kinase assay (33PanQinase® Activity Assay) was used for measuring the kinase activity of TTK and PLK1. TTK and PLK1 protein kinases were expressed as recombinant full-length GST-fusion proteins. The reaction cocktail contained […] of enzyme/substrate mixture. The assay for the protein kinases contained 70 mM HEPES-NaOH pH 7.5, 3 mM MgCl2, 3 mM MnCl2, 3 mM Na-orthovanadate, 1.2 mM DTT, […] PEG20000, ATP (0.3 mM for TTK and 1 mM for PLK1), [γ-33P]-ATP (approx. 8×10^5 cpm per well), protein kinase (15.8 nM for TTK and 5 nM for PLK1), and substrate (1 mg/50 mL for TTK and 2 mg/50 mL for PLK1). All assays were performed with a Beckman-Coulter/SAGIAN™ Core System. The fitting model for the IC50 determinations was “Sigmoidal response (variable slope)” with parameters “top” fixed at 100% and “bottom” at 0%. The fitting method used was a least squares fit.

biotinylated PLK1 = target: T3, biotinylated PLK1 (Homo sapiens, UniProt P53350); assay: Target residence time assay (Biacore T200 surface plasmon resonance), PLK1; type: binding; details: SPR, 22° C.
T3 construct: biotin (biotinylated)
T3 sequence (P53350 whole entry): as the sequence (P53350 whole entry, the tested form may be a part) above
Procedure: (§5) The affinity, i.e. the equilibrium dissociation constant (KD) (referred to as residence times), of the compound of formula (I) against TTK and PLK1 were determined using a Biacore T200™ surface plasmon resonance instrument using recombinant expressed TTK kinase domain (amino acids 519-808) or biotinylated PLK1. The immobilization of TTK was performed as described in Maia et al. Annals of Oncology, 2015; 26:2180-2192. The immobilization of biotinylated PLK1 was performed as described in Willemsen-Seegers et al. Journal of Molecular Biology, 2017; 429:574-586. The subsequent single cycle kinetic assays were performed at 22° C. using a compound concentration gradient of 1, 3.6, 10, 31.6 and 100 nM for TTK and 10, 31.6, 100, 316 and 1000 nM for PLK1, a contact time of 100 s and a flow rate of […]. The dissociation period was 1200-1800 s and a correction for an unstable surface using a blank run with buffer was performed.

[6] = Single-dose pharmacokinetic drug-drug interaction experiment; type: in vivo; details: 8 mg/kg i.v., 1 h after paclitaxel (15 mg/kg, i.v.); non tumor-bearing mice
[7] = tested on: patient-derived tumor xenografts, including TNBC and hepatocellular cancer (HCC) models; assay: Patient-derived tumor xenografts in mice (data not shown); type: in vivo
Source text: (§6) In cellular systems, the compound of formula (I) has high potency against sensitive cells.

tumor-derived TTK = target: T4, tumor-derived TTK (Homo sapiens, UniProt P33981); assay: Tumor TTK target occupancy in MDA-MB-231 xenograft-bearing mice; type: in vivo
T4 construct: from tissue; host or cells: MDA-MB-231 xenograft tumours from mice
T4 sequence (P33981 1-857): T1 sequence (P33981 1-857)
Procedure: Prolonged TTK target occupancy was also measured in tumors derived from MDAMB-231 xenograft-bearing mice treated with intermittent i.v. dosing regimen of compound of formula (I). […]

PLK1 [8] = target: T2, PLK1; assay: PLK1 kinase assay as described in WO 2015/155042; type: biochemical; details: when measured as described in WO 2015/155042
TTK [9] = target: T1, TTK; assay: Radiometric protein kinase assay (33PanQinase Activity Assay), TTK; type: biochemical; details: radiometric 33PanQinase assay; ATP 0.3 mM
Procedure: as §4

[10] = target: T5, TTK kinase domain (amino acids 519-808) (Homo sapiens, UniProt P33981); assay: Target residence time assay (Biacore T200 surface plasmon resonance), TTK; type: binding; details: SPR, 22° C.
T5 construct: recombinant expressed TTK kinase domain (amino acids 519-808)
T5 sequence (P33981 519-808): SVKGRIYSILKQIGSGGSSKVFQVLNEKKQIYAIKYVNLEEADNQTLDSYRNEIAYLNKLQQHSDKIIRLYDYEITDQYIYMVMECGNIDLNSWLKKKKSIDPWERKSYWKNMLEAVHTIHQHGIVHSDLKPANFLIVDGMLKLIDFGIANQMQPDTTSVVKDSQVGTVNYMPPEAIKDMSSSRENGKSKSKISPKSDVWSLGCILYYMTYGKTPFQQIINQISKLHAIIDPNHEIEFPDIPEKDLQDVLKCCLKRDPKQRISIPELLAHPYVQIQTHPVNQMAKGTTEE
Procedure: as §5

[11] = tested on: triple negative breast cancer cell lines; assay: 5-day anti-proliferative screen of 18 triple negative breast cancer cell lines; type: cell-based; details: 120 h, 18 different triple negative breast cancer cell lines, read-out: median GI50
Source text: as §6

CC(=O)O[C@H]1C(=O)[C@@]2(C)[C@H]([C@H](OC(=O)c3ccccc3)[C@]3(O)C[C@H](OC(=O)[C@H](O)[C@@H](NC(=O)c4ccccc4)c4ccccc4)C(C)=C1C3(C)C)[C@]1(OC(C)=O)CO[C@@H]1C[C@@H]2O [Paclitaxel, reference compound]
Efficacy: ΔT/C Day 16 [1]: 0.24 | Efficacy: ΔT/C Day −0 up to Day 42 [1]: 0.41*** | Cures Day 97 [1]: 0/8 | Tolerability (Day 13) ΔBW (%) [2]: 4.9 ± 0.3% | Tolerability (Day 13) ΔT/C [2]: 1.02 | Efficacy: ΔT/C Day 13 (TNBC BR1282 PDX model): 0.48 | Efficacy: ΔT/C Day 0 up to day 51 (TNBC BR1282 PDX model): 0.63*** | Cures By day 148 (TNBC BR1282 PDX model): 0/8 | Tolerability (Day 16) ΔBW (%) [3]: −1.0 ± 1.2% | Tolerability (Day 16) ΔT/C [3]: 1.00

COc1cc(N2CCNCC2)ccc1Nc1ncc2c(n1)-n1ccc(C(=O)Nc3c(C)cccc3C)c1CC2 [Compound of formula (I)]
other kinase IC50s higher than those for TTK (other kinase): at least 10 fold | IC50 (TTK [4]): 0.4 nM | IC50 (PLK1 [5]): 72 nM | Efficacy: ΔT/C Day 16 [1]: 0.45 | Efficacy: ΔT/C Day −0 up to Day 42 [1]: 0.28*** | Cures Day 97 [1]: 0/8 | target-residency on PLK1 (biotinylated PLK1): a few minutes | change in plasma AUC of the compound of formula (I) [6]: slight nonsignificant increase | activity against patient-derived tumor xenografts [7]: significant activity | time TTK completely occupied after last dose (tumor-derived TTK; i.v. twice-weekly, MTD dose): at least 72 h | time tumor-derived TTK fully drug-occupied after last administration (tumor-derived TTK; i.v. weekly MTD dosing): up to 6 days | Tolerability (Day 13) ΔBW (%) [2]: −1.9 ± 1.4% | Tolerability (Day 13) ΔT/C [2]: 0.93 | IC50 (PLK1 [8]): 46 nM | animals indicating regression (TNBC BR1282 PDX model; day 51): 3/8 | Efficacy: ΔT/C Day 13 (TNBC BR1282 PDX model): 0.32 | Efficacy: ΔT/C Day 0 up to day 51 (TNBC BR1282 PDX model): −0.02*** | Cures By day 148 (TNBC BR1282 PDX model): 0/8 | IC50 (TTK [9]): 7 nM | mortality ([3]; day 21, considered non-drug-related): one mouse died | Tolerability (Day 16) ΔBW (%) [3]: −0.3 ± 1.4% | Tolerability (Day 16) ΔT/C [3]: 1.01 | target-residency on TTK [10]: > 12 h | GI50 [11]: 35 nM
